SMILES strings stand for the structures.

This note sets out measurements from US20250304567A1, “PYRROLIDIONE DERIVATIVES AS INHIBITORS OF NF KAPPA B INDUCING KINASE” (priority 2022, published 2025).

In experiment [1] the test system is p-IKKa levels in L363 (NIK translocated multiple myeloma) cells. The experiment is described as follows: Effect of compounds on p-IKKa levels in L363 (NIK translocated multiple myeloma) cells (AlphaLISA SureFire Ultra p-IKKa Ser176/180). The format is cell-based, human. As to conditions: Homo sapiens, L-363, p-IKKa levels in L363 cells; average if tested more than once; read-out: Assay 2 IC50. As to the method: Assay 2: Effect of Compounds on p-IKKa Levels in L363 (NIK Translocated Multiple Myeloma) Cells
All compounds tested were dissolved and serially diluted in DMSO, 1:3 dilution for 11 points in an Echo compatible plate. 100% DMSO was added to columns 12 and 24 of the plate to serve as high and low signal controls. This compound plate was used to spot 20 nL of compound or DMSO into a Greiner 384 well TC plate (781080). The final DMSO concentration was 0.3% (v/v) in cell assays. Human L363 cells (ATCC) were cultured in RPM11640 medium supplemented with GlutaMax, non-essential amino acids, sodium pyruvate and 10% fetal bovine serum. Cells were routinely maintained at densities of 0.2×10^6 cells per ml-2×10^6 cells per mL at 37° C. in a humidified 5% CO2 atmosphere incubator. Cells were passaged twice a week splitting back to obtain the low density. The day before the assay, cells were washed twice in HBSS (Hank's Balanced Salt Solution), resuspended in Dulbecco's Modified Eagle Medium (DMEM)+0.5% IgG and protease free BSA (Jackson Immuno Research Laboratories), +/−250 ng/ml recombinant human B-cell activating factor (BAFF/BLyS/TNFSF13B) and incubated overnight at 37° C. in a humidified 5% CO2 atmosphere (bulk stimulation with or without BAFF). The next day, the cell concentration was adjusted to 1×10^7 cells/ml in DMEM+/−250 ng/ml BAFF+/−10 μM MG132 and plated at 10 μl/well into compound or DMSO spotted 384 well TC plates. Seeded cells were incubated at 37° C. in a humidified 5% CO2 atmosphere for 6 h. After 6 h, the plates were removed from the incubator and cell lysis was achieved by the addition of 2.5 μl 5× lysis buffer containing protease and phosphatase inhibitors, followed by shaking on a plate shaker at room temperature for 15 min. At the end of this incubation, lysed cells were sequentially treated and incubated with acceptor and donor bead mixes according to the manufacturer's protocol for a 1 plate/2-incubation suspension cell assay (AlphaLISA SureFire Ultra p-IKKa (Ser 176/180) Assay Kit (Perkin Elmer). Plates were read using an EnVision Multilabel Plate Reader (Perkin Elmer). Within an experiment, a concentration response curve for each compound was run in duplicate. The signal obtained in the test wells was normalized using high signal (BAFF stimulated cells, DMSO, MG132) and low signal (unstimulated cells, DMSO) controls. To determine the IC50, a sigmoidal curve was fitted to the plot of % inhibition versus Log10 compound concentration.

Experiment [2] has as its target Recombinant Human NF-kappaB-Inducing Kinase (NIK/MAP3K14) (Homo sapiens, UniProt Q99558). The experiment is described as follows: Inhibition of auto-phosphorylation of recombinant human NIK/MAP3K14 activity (AlphaScreen). As to conditions: 5 μM ATP, 1 nM NIK, average if tested more than once. The format is biochemical. As to the method: Assay 1: Inhibition of Auto-Phosphorylation of Recombinant Human NF-kappaB-Inducing Kinase (NIK/MAP3K14) Activity (AlphaScreen™)
NIK/MAP3K14 auto-phosphorylation activity was measured using the AlphaScreen™ (αscreen) format (Perkin Elmer). All compounds tested were dissolved in dimethyl sulfoxide (DMSO) and further dilutions were made in assay buffer. The final DMSO concentration was 0.7% (v/v) in assays. The assay buffer was 50 mM Tris pH 7.5 containing 1 mM EGTA (ethylene glycol tetraacetic acid), 1 mM DTT (dithiothreitol), 0.1 mM Na3VO4, 5 mM MgCl2, and 0.01% Tween®20. The assays were carried out in 384 well Proxiplates (Perkin Elmer). The incubations consisted of the compound, 5 μM Adenosine-5′-triphosphate (ATP), and 1 nM NIK/MAP3K14. Incubations were initiated by the addition of GST-tagged NIK/MAP3K14 enzyme, carried out for 2 h at 25° C. and terminated by addition of stop buffer containing anti-phospho-IKK Ser176/180 antibody. Protein A Acceptor and Glutathione-Donor beads were added before reading using an EnVision Multilabel Plate Reader (Perkin Elmer). The signal obtained in the wells was normalized using high (full enzyme activity, 0.7% DMSO) and low controls (no enzyme activity, 0.7% DMSO, no ATP). IC50's were determined by fitting a sigmoidal curve to % inhibition of control versus Log10 compound concentration.

Sequence of Recombinant Human NF-kappaB-Inducing Kinase (NIK/MAP3K14) (Q99558 whole entry): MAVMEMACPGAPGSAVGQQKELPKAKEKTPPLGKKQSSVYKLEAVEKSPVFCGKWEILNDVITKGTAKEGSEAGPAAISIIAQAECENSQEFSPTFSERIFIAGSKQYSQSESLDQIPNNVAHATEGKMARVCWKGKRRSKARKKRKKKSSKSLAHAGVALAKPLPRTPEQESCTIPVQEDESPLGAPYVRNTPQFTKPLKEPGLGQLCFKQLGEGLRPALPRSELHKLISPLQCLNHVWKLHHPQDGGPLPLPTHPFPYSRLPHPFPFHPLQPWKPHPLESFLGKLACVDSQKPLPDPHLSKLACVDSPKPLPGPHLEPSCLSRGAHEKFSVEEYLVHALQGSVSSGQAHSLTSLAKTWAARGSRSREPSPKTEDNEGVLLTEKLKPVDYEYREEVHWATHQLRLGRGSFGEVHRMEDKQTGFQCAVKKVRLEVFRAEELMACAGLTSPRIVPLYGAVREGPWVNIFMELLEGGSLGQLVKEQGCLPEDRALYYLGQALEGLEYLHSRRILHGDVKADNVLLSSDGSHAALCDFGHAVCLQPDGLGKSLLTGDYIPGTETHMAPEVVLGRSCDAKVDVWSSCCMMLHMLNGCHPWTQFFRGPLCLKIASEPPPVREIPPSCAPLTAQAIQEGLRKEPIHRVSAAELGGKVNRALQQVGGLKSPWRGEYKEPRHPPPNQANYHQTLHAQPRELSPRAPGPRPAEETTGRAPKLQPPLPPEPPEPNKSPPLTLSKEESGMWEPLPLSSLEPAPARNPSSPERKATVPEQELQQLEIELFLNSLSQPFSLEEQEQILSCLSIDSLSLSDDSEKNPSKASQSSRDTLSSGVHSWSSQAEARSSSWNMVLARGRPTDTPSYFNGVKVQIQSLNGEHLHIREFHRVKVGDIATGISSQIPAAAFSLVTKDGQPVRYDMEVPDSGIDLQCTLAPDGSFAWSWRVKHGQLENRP

In the case of `CN1CC[C@@](O)(c2cccc(-c3nc(-c4ccnc(Nc5ncccc5F)n4)cs3)c2)C1=O` [Example 163, (R)-3-(3-(4-(2-((3-Fluoropyridin-2-yl)amino)pyrimidin-4-yl)thiazol-2-yl)phenyl)-3-hydroxy-1-methylpyrrolidin-2-one], the values for the IC50 in experiment [1] and in experiment [2] were greater than 501 nM and 100 to 500 nM, respectively.
With `Cc1cc(Nc2nccc(-c3csc(-c4cccc([C@]5(O)CCN(C)C5=O)c4)n3)n2)ccn1` [Example 43, (R)-3-Hydroxy-1-methyl-3-(3-(4-(2-((2-methylpyridin-4-yl)amino)pyrimidin-4-yl)thiazol-2-yl)phenyl)pyrrolidin-2-one], the figures for the IC50 in experiment [1] and in experiment [2] were 100 to 500 nM and less than 100 nM, respectively.
Turning to `CNC(=O)c1ccc(C)c(Nc2nccc(-c3csc(-c4cccc([C@]5(O)CCN(C)C5=O)c4)n3)n2)c1` [Example 10, (R)-3-((4-(2-(3-(3-Hydroxy-1-methyl-2-oxopyrrolidin-3-yl)phenyl)thiazol-4-yl)pyrimidin-2-yl)amino)-N,4-dimethylbenzamide], the results for the IC50 in experiment [1] and in experiment [2] were 100 to 500 nM and less than 100 nM, respectively.
Taken in the same sequence, the figures for `CN1C(=O)[C@](O)(c2ccnc(-c3csc(-c4ccnc(Nc5ccn(C)n5)n4)n3)c2)C[C@H]1C(F)(F)F` (single isomer, unassigned) [Example 59] were 100 to 500 nM and less than 100 nM.
`CN1CC[C@@](O)(c2cccc(-c3nc(-c4ccnc(NCCCN5CCOCC5)n4)cs3)c2)C1=O` [Example 246]: the half-inhibitory concentration (IC50) in experiment [1] and in experiment [2] was greater than 501 nM throughout.
Take `CN1CC[C@](O)(c2cc(-c3csc(-c4ccnc(Nc5ccn(C)n5)n4)n3)ccc2F)C1=O` (single isomer, unassigned) [Example 25]: the half-maximal inhibitory concentration (IC50) is greater than 501 nM in experiment [1] and 100 to 500 nM in experiment [2].
The corresponding values for `CC(=O)N1CC(Nc2nccc(-c3csc(-c4cccc([C@]5(O)CCN(C)C5=O)c4)n3)n2)C1` [Example 172] are greater than 501 nM and 100 to 500 nM.
Consider `Cc1c(CNc2nccc(-c3csc(-c4cccc([C@]5(O)CCN(C)C5=O)c4)n3)n2)cnn1C` [Example 118, (R)-3-(3-(4-(2-(((1,5-dimethyl-1H-pyrazol-4-yl)methyl)amino)pyrimidin-4-yl)thiazol-2-yl)phenyl)-3-hydroxy-1-methylpyrrolidin-2-one], for which the values for the IC50 in experiment [1] and in experiment [2] were greater than 501 nM and less than 100 nM, respectively.
For `CC(C)n1cc(Nc2nccc(-c3csc(-c4cccc([C@]5(O)CCN(C)C5=O)c4)n3)n2)cn1` [Example 276, (R)-3-Hydroxy-3-(3-(4-(2-((1-isopropyl-1H-pyrazol-4-yl)amino)pyrimidin-4-yl)thiazol-2-yl)phenyl)-1-methylpyrrolidin-2-one], the IC50 in experiment [1] and in experiment [2] was less than 100 nM throughout.
Turning to `CN1CC[C@@](O)(c2cccc(-c3nc(-c4ccnc(Nc5ccn(CC(F)(F)F)n5)n4)cs3)c2)C1=O` [Example 75, (R)-3-hydroxy-1-methyl-3-(3-(4-(2-((1-(2,2,2-trifluoroethyl)-1H-pyrazol-3-yl)amino)pyrimidin-4-yl)thiazol-2-yl)phenyl)pyrrolidin-2-one], the IC50 was 100 to 500 nM in experiment [1] and less than 100 nM in experiment [2].
Take `CN1CC[C@@](O)(c2cccc(-c3nc(-c4ccnc(Nc5cnn(C6CCOC6)c5)n4)cs3)c2)C1=O` (single isomer, unassigned) [Example 18]: the values for the concentration for half-maximal inhibition (IC50) in experiment [1] and in experiment [2] were 100 to 500 nM and less than 100 nM, respectively.
In the case of `COCCn1cc(Nc2nccc(-c3csc(-c4cccc([C@]5(O)CCN(C)C5=O)c4)n3)n2)cn1` [Example 265, (R)-3-Hydroxy-3-(3-(4-(2-((1-(2-methoxyethyl)-1H-pyrazol-4-yl)amino)pyrimidin-4-yl)thiazol-2-yl)phenyl)-1-methylpyrrolidin-2-one], the IC50 is 100 to 500 nM in experiment [1] and less than 100 nM in experiment [2].
Regarding `CN1CC[C@@](O)(c2ccnc(-c3ccn(-c4ccnc(Nc5cnn6ccccc56)n4)n3)c2)C1=O` (single isomer, unassigned) [Example 153, (R)-3-hydroxy-1-methyl-3-(2-(1-(2-(pyrazolo[1,5-a]pyridin-3-ylamino)pyrimidin-4-yl)-1H-pyrazol-3-yl)pyridin-4-yl)pyrrolidin-2-one or (S)-3-hydroxy-1-methyl-3-(2-(1-(2-(pyrazolo[1,5-a]pyridin-3-ylamino)pyrimidin-4-yl)-1H-pyrazol-3-yl)pyridin-4-yl)pyrrolidin-2-one], the IC50 in experiment [1] and in experiment [2] was less than 100 nM each time.
Consider `Cc1c(Nc2nccc(-c3csc(-c4cccc([C@]5(O)CCN(C)C5=O)c4)n3)n2)ncn1C` [Example 178], for which the half-maximal inhibitory concentration (IC50) in experiment [1] and in experiment [2] was greater than 501 nM throughout.
For the compound `CN1CC[C@@](O)(c2cccc(-c3nc(-c4ccnc(Nc5ccn(CCO)n5)n4)cs3)c2)C1=O` [Example 286, (R)-3-hydroxy-3-(3-(4-(2-((1-(2-hydroxyethyl)-1H-pyrazol-3-yl)amino)pyrimidin-4-yl)thiazol-2-yl)phenyl)-1-methylpyrrolidin-2-one], the IC50 is 100 to 500 nM in experiment [1] and less than 100 nM in experiment [2].
Taken in the same sequence, the figures for `CN1CC[C@@](O)(c2cccc(-c3nc(-c4ccnc(NC5CCN(c6cnn(C)c6)C5)n4)cs3)c2)C1=O` (stereo partly drawn) [Example 120, (R)-3-hydroxy-1-methyl-3-(3-(4-(2-(((R,S)-1-(1-methyl-1H-pyrazol-4-yl)pyrrolidin-3-yl)amino)pyrimidin-4-yl)thiazol-2-yl)phenyl)pyrrolidin-2-one] were greater than 501 nM and 100 to 500 nM.
Regarding `Cc1sc(-c2cccc([C@]3(O)CCN(C)C3=O)c2)nc1-c1ccnc(Nc2ccn(C)n2)n1` [Example 17, (R)-3-Hydroxy-1-methyl-3-(3-(5-methyl-4-(2-((1-methyl-1H-pyrazol-3-yl)amino)pyrimidin-4-yl)thiazol-2-yl)phenyl)pyrrolidin-2-one], the IC50 is greater than 501 nM in experiment [1] and less than 100 nM in experiment [2].
For `C[C@H](Nc1nccc(-c2nc(-c3cc([C@]4(O)CCN(C)C4=O)ccn3)cs2)n1)c1ccnn1C` [Example 290, (R)-3-Hydroxy-1-methyl-3-(2-(2-(2-(((S)-1-(1-methyl-1H-pyrazol-5-yl)ethyl)amino)pyrimidin-4-yl)thiazol-4-yl)pyridin-4-yl)pyrrolidin-2-one], the 50% inhibitory concentration (IC50) in experiment [1] was 100 to 500 nM; in experiment [2], less than 100 nM.
In the case of `CN1CC[C@@](O)(c2cccc(-c3nc(-c4ccnc(NC5CCOCC5)n4)cs3)c2)C1=O` [Example 181], the IC50 in experiment [1] was greater than 501 nM; in experiment [2], 100 to 500 nM.
Taken in the same sequence, the figures for `CN1CC[C@@](O)(c2cccc(-c3nc(-c4ccnc(N[C@H]5C[C@H](O)C5)n4)cs3)c2)C1=O` [Example 109, (R)-3-hydroxy-3-(3-(4-(2-(((1R,3R)-3-hydroxycyclobutyl)amino)pyrimidin-4-yl)thiazol-2-yl)phenyl)-1-methylpyrrolidin-2-one] were greater than 501 nM and 100 to 500 nM.
Regarding `CN1CC[C@@](O)(c2cccc(-c3csc(-c4ccnc(Nc5cnn(C6CCS(=O)(=O)CC6)c5)n4)n3)c2)C1=O` [Example 88, (R)-3-(3-(2-(2-((1-(1,1-dioxidotetrahydro-2H-thiopyran-4-yl)-1H-pyrazol-4-yl)amino)pyrimidin-4-yl)thiazol-4-yl)phenyl)-3-hydroxy-1-methylpyrrolidin-2-one], the half-inhibitory concentration (IC50) was 100 to 500 nM in experiment [1] and less than 100 nM in experiment [2].

The term IC50 denotes the concentration at which inhibition is half-maximal.
